CCCCCC[n+]1ccn(C)c1.O=[N+]([O-])[O-]
solubility (mole fraction)
Conditions | in benzene | in cyclohexane | in m-xylene | in n-heptane | in n-hexane | in n-octane | in n-pentane | in o-xylene | in p-xylene | in toluene
278.15 K | – | – | – | – | – | – | 0.000359 | – | – | –
283.15 K | – | – | – | – | – | – | 0.000397 | – | – | –
288.15 K | – | – | – | – | 0.000306 | – | 0.000442 | – | – | –
293.15 K | – | 0.000304 | – | – | 0.000362 | 0.000203 | 0.000484 | – | – | –
298.15 K | 0.000219 | 0.000357 | 0.00239 | – | 0.00042 | 0.000234 | 0.000534 | 0.00133 | 0.000795 | 0.000278
303.15 K | 0.000263 | 0.0004 | 0.00271 | – | 0.000492 | 0.000268 | 0.000578 | 0.00145 | 0.000896 | 0.000334
308.15 K | 0.000308 | 0.000446 | 0.00303 | – | 0.000575 | 0.000299 | – | 0.0016 | 0.00102 | 0.00039
313.15 K | 0.000382 | 0.000516 | 0.00337 | 0.000268 | 0.000693 | 0.000344 | – | 0.00173 | 0.00114 | 0.000482
318.15 K | 0.000454 | 0.000592 | 0.00376 | 0.000358 | 0.000794 | 0.00038 | – | 0.00187 | 0.00128 | 0.000585
323.15 K | 0.000536 | 0.000674 | 0.00413 | 0.00049 | 0.000895 | 0.000421 | – | 0.00198 | 0.00141 | 0.000686
328.15 K | 0.00061 | 0.000751 | 0.00458 | 0.000629 | 0.000995 | 0.000458 | – | 0.00213 | 0.00155 | 0.000776
333.15 K | 0.000714 | 0.000857 | 0.00505 | 0.000841 | 0.00113 | 0.000518 | – | 0.00227 | 0.00169 | 0.000904
338.15 K | 0.000832 | 0.00097 | 0.00553 | 0.00109 | – | 0.000568 | – | 0.0024 | 0.00182 | 0.00106
343.15 K | 0.000962 | – | 0.00607 | 0.00142 | – | 0.000631 | – | 0.00253 | 0.00199 | 0.00123

From BigSolDB 2.1
